Measured values as given in patent publication US11730746B2, “17beta-heterocyclyl-digitalis like compounds for the treatment of heart failure” (priority 2018, dated 2023).
“And” between values parts separate entries of the source, which are not always exact repeats. Equal values may be shown once. Marks after values point to notes of the source that are not given here.

Experiments:
SERCA2a = target: T1, SERCA2a (Canis lupus familiaris, UniProt O46674); assay: SERCA2a ATPase activity in heart-derived SR microsomes from normal dog; format: biochemical; conditions: for Vmax (SERCA2a ATPase activity): mean ± SD
T1 construct: pre-incubated with 2 μg of microsomes; from tissue; host or cells: dog heart left ventricle, SR microsomes
Experimental: Left ventricle tissues were dissected, homogenized in 4 volumes of 10 mM NaHCO3, pH 7, 1 mM PMSF, 10 μg/ml Aprotinin and Leupeptin and centrifuged at 12,000 g for 15 minutes, as published (Nediani C. et al. J Biol Chem. 1996; 271:19066-73). Supernatants were filtered and centrifuged at 100,000 g for 30 min. Contractile proteins were extracted by suspending the pellets with 0.6 M KCl, 30 mM Histidine, pH 7 and further centrifugation at 100,000 g for 30 min. Final pellets were reconstituted with 0.3 M Sucrose, 30 mM Histidine, pH 7.
SERCA2a activity was measured “in vitro” as ^32P-ATP hydrolysis at different Ca^2+ concentrations (100-4000 nM) in the absence and presence of the tested compounds, as described (Micheletti R. et al. Am J Card 2007; 99:24A-32A). Increasing concentrations of each compound (from 1 to 100 nM) were pre-incubated with 2 μg of microsomes for 5 min at 4° C. in 80 μl of a solution containing 100 mM KCl, 5 mM MgCl2, 1 μM A23187, 20 mM Tris, pH 7.5. Then, 20 μl of 5 mM Tris-ATP containing 50 nCi of ^32P-ATP (3-10 Ci/mmol, Perkin Elmer) were added. The ATP hydrolysis was continued for 15 min at 37° C. and the reaction was stopped by acidification with 100 μl of 20% v/v ice-cold perchloric acid. ^32P was separated by centrifugation with activated charcoal (Norit A, SERVA) and the radioactivity was measured. SERCA2a-dependent activity was identified as the portion of total hydrolytic activity inhibited by 10 μM cyclopiazonic acid (Seidler N W. et al. J Biol Chem. 1989; 264:17816-23).
Dose-response curves were fitted by using a sigmoidal curve fitting software and the maximal velocity (Vmax) activity and the Kd Ca^2+ were calculated (Synergy Software KaleidaGraph 3.6).

[1] = system: guinea pig isolated cardiomyocytes; assay: SR Ca2+ uptake function (loading protocol) in isolated ventricular cardiomyocytes; format: cell-based; conditions: 100 nM
Experimental: The compounds were characterized for their effect on (i) SR Ca^2+ uptake function, (ii) action potential (AP) in myocytes freshly dissociated from guinea-pig ventricles by retrograde coronary perfusion with enzymatic solution (Rocchetti M et al. J Pharmacol Exper Therap 2005; 313(1):207-215).
Drug effects on SR Ca^2+ uptake rate were evaluated with an SR “loading protocol” specifically devised to rule out the contribution of the Na/Ca exchanger (NCX) and to assess the uptake rate starting at low levels of SR Ca^2+ loading. Under voltage-clamp conditions, intracellular Ca^2+ concentration was dynamically measured by epifluorescence (Fluo4-AM). Membrane current, whose time-dependent component mainly reflected ICaL, was simultaneously recorded. The SR loading protocol consisted in emptying the SR (by a brief caffeine pulse) and then progressively refilling it by voltage steps activating Ca^2+ influx through the sarcolemmal Ca^2+ channel (ICaL). NCX was blocked by omission of Na^+ from intracellular and extracellular solutions. The procedure is in agreement with published methods, with minor modifications (Rocchetti M et al. J Pharmacol Exper Therap 2005; 313(1):207-215).
Drug effects on SR Ca^2+ uptake were analysed by considering multiple parameters: 1) the rate at which Ca^2+ transient (CaT) amplitude increased during the loading protocol, which reflects the rate at which the SR refilled and 2) the time constant of cytosolic Ca^2+ decay (Tdecay) within each pulse, reflecting net Ca^2+ transport rate (by SERCA2a) across the SR membrane (a decrease in Tdecay corresponds to enhanced SR Ca^2+ uptake).

guinea pig = assay: Haemodynamics: inotropic and lethal dose in guinea pig; format: in vivo; conditions: for E max % increase in dP/dtmax: 90 min; for ED max: cumulative dose
Experimental: Guinea-pigs (400-450 g) were anaesthetized with urethane (1.5 g/kg ip). A microtip pressure transducer was introduced into the left ventricle through the right carotid artery to measure ventricular pressure (LVP); the transducer was coupled with a transducer amplifier. Recordings were fed to a polygraph and analyzed. A polythene cannula was inserted into a jugular vein for drug infusion. After a stabilization period, the test substance was injected at the rate of 0.16 ml/min for 90 min (Micheletti R et al. J Pharmacol Exp Ther 2002; 303:592-600).
The following parameters were obtained: heart rate (HR), left ventricular pressure (LVP), maximal velocity of pressure rise (+dP/dtmax) and decay (−dP/dtmax), ECG. For inotropy, the time elapsed until +dP/dtmax increased by 80% was identified in order to determine the ED80 (dose increasing basal +dP/dtmax by 80%). The time to the maximum increase in +dP/dtmax was also identified to determine the maximum effective dose, EDmax. Lusitropy was characterized by the dose inducing the maximum decrease in −dP/dtmax, (EDmax). As indexes of toxicity, the dose administered until the onset of arrhythmias and the dose inducing death (LD) were calculated. The safety ratio for the tested compound was also calculated as the ratio between LD and ED80.

[2] = target: T2, Peptidase, Angiotensin Converting Enzyme (Oryctolagus cuniculus, UniProt P12822); assay: Eurofins panel 107300; format: biochemical, rabbit
T2 construct: Eurofins 107300

Androgen (Testosterone) = assay: Receptor binding 206000; set-up: species or system human; conditions: 10 μM
Experimental: (§1) Radioligand binding to a panel of receptors was carried out by Eurofins on crude membrane preparations according to published procedures and by using appropriate reference standard (Eurofins, CVie 101 compound code PT #1207859, study #AB76416, quote #68407-1, for Cvie Therapeutics Limited, Taiwan (R.OC.) on Mar. 5, 2017). CVie 101 was tested at the concentration of 10 μM. No significant interaction was documented, except for Sodium Channel, site 2 from rat (cat #279510), where a significant response (≥50%) was noted (Table 7).

Dopamine D1 = target: T3, Dopamine D1 (Homo sapiens, UniProt P21728); assay: Receptor binding 219500
T3 construct: Eurofins 219500; host or cells: crude membrane preparation
Experimental: as §1

[3] = system: GABAA, Flunitrazepam, Central; assay: Receptor binding 226600; set-up: species or system rat; conditions: 10 μM
Experimental: as §1

Nicotinic Acetylcholine = assay: Receptor binding 258590; set-up: species or system human; conditions: 10 μM
Experimental: as §1

hERG potassium channel = target: T4, hERG potassium channel (Homo sapiens, UniProt Q12809); assay: Receptor binding 265900; conditions: crude membrane preparations
T4 construct: Eurofins (contract assay) 265900
Experimental: as §1

T1 sequence (O46674 whole entry): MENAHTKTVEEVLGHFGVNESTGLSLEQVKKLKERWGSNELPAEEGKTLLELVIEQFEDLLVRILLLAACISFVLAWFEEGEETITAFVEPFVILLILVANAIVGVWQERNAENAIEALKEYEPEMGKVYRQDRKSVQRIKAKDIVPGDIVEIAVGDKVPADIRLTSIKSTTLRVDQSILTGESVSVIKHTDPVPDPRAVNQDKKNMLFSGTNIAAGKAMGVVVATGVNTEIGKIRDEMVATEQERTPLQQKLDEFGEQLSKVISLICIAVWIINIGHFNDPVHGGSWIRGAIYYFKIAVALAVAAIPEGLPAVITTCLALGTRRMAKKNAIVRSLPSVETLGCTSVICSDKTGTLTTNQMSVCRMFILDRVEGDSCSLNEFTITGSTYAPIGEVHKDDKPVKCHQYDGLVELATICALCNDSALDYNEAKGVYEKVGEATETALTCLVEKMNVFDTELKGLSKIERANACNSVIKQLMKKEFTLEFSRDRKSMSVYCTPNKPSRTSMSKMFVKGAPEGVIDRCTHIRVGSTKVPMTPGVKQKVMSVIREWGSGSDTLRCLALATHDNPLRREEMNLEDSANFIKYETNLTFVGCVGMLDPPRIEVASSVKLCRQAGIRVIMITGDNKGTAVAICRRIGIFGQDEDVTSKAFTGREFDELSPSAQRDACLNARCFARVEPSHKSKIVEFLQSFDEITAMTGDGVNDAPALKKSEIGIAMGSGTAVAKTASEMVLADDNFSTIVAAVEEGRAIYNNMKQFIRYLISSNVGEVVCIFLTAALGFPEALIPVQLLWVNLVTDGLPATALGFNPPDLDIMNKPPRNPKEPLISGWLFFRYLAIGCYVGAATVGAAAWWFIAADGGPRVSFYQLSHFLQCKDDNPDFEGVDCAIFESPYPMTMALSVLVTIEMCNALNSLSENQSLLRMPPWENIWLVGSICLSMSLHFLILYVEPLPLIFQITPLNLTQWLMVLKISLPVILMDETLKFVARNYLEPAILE
T4 sequence (Q12809 whole entry): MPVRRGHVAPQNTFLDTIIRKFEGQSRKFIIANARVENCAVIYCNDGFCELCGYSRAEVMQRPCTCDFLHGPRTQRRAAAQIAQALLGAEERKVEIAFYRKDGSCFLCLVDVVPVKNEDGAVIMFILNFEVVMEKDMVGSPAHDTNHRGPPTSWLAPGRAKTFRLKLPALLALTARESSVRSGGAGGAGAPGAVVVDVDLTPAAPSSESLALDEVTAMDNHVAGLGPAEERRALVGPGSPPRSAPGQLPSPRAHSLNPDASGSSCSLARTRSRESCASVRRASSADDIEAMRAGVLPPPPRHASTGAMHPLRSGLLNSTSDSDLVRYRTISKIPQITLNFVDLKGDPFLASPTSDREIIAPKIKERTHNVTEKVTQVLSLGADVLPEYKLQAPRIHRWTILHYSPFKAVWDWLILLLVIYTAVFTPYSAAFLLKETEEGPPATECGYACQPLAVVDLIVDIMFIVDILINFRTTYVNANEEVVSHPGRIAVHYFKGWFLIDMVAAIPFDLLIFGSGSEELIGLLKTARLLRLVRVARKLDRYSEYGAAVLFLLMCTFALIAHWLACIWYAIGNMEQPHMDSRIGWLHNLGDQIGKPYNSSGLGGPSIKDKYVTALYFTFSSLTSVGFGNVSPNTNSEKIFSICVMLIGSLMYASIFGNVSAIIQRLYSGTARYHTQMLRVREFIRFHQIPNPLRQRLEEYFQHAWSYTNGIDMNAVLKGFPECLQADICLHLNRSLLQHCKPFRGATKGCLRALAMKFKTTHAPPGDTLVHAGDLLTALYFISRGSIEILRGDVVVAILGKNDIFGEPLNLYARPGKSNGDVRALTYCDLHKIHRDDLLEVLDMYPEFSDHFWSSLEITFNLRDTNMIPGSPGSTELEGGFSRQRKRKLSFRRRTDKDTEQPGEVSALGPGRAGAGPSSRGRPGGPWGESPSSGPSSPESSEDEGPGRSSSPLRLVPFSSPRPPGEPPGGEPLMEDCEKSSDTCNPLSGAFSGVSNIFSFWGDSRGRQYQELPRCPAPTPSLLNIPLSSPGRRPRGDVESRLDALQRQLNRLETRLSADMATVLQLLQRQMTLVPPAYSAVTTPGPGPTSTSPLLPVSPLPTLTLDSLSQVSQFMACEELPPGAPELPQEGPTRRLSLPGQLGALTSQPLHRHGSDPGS
T3 sequence (P21728 whole entry): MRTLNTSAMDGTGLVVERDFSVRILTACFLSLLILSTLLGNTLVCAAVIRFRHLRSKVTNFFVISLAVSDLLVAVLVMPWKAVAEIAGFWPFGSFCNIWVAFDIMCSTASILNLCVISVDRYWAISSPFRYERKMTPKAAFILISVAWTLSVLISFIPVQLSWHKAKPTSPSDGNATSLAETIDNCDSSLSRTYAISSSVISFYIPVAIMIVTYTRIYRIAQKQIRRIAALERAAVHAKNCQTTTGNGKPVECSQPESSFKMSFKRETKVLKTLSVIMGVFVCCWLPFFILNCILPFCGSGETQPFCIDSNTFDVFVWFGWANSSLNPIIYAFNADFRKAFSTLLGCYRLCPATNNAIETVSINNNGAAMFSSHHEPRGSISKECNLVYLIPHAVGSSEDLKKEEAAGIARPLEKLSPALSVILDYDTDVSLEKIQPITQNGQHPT
T2 sequence (P12822 34-1310): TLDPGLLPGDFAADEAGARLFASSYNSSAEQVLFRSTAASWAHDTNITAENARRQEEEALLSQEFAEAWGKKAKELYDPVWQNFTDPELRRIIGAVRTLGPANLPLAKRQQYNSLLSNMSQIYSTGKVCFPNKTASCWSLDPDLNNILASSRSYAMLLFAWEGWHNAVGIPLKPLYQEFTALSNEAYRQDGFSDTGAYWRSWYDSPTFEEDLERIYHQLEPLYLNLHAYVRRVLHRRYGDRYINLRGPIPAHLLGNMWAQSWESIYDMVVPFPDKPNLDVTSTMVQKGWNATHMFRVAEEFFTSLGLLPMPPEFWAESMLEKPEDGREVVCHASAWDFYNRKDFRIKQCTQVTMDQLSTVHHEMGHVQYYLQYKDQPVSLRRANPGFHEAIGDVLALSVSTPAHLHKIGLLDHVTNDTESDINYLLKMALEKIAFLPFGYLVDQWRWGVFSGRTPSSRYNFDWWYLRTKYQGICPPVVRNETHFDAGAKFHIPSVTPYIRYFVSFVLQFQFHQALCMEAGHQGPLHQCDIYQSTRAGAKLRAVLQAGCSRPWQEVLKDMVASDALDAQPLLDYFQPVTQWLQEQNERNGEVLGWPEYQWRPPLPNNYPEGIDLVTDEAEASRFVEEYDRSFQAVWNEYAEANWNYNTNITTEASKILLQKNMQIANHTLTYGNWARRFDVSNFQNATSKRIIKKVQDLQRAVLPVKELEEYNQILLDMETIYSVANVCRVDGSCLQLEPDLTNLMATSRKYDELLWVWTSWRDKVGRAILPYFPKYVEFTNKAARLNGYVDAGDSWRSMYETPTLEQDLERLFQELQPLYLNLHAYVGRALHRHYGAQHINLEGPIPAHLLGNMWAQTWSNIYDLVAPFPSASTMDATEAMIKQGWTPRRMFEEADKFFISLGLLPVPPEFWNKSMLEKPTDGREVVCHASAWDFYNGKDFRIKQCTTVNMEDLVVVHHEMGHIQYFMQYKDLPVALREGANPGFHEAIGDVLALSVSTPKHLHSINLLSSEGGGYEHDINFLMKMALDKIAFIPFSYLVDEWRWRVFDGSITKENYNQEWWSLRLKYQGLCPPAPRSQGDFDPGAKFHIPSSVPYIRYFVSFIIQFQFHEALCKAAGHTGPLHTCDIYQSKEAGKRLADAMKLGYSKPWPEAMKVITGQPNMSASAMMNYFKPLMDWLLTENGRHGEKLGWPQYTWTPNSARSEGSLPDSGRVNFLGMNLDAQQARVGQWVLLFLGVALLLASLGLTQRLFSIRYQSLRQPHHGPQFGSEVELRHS

## C[C@]12CC[C@H](O)C[C@H]1CCC1C2CC[C@]2(C)[C@@H](c3c[nH]cn3)CC[C@]12O (stereo partly drawn) [CVie 101, 3β-hydroxy-5β-10β-methyl-13β-methyl-14β-hydroxy-17β-(imidazol-4-yl)androstane]
SERCA2a; compound 10 nM
  % increase vs Control (SERCA2a Vmax): 15%*
  Vmax (SERCA2a ATPase activity): 2.737 ± 0.336 (n = 7) μmol/min/mg prot
SERCA2a; compound 100 nM
  % increase vs Control (SERCA2a Vmax): 19%*
  Vmax (SERCA2a ATPase activity): 2.832 ± 0.198 (n = 7) μmol/min/mg prot
[1]; FIG. 1A, 1C
  rate of Ca2+ transient (CaT) increment during SR reloading: increased
[1]; FIG. 1B, 1D
  time constant of cytosolic Ca2+ decay within each pulse (τdecay): decreased
Guinea pig; i.v. infusion 0.2 mg/kg/min
  Dead/treated number: 1/8
  ED80: 1.6 mg/kg and 1.60 mg/kg
  Lethal dose: >18 mg/kg
  E max % increase in dP/dtmax: 163.6%
  ED max: 3.73 mg/kg
Guinea pig; i.v. infusion 0.5 mg/kg/min
  Dead/treated number: 8/8
  ED80: 2.74 mg/kg
  Lethal dose: 28.2 mg/kg
  E max % increase in dP/dtmax: 216.8%
  ED max: 5.08 mg/kg
Guinea pig; i.v. infusion 0.5 mg/kg/min, safety ratio
  LD/ED80: 11.32
[2]
  inhibition at 10 µM: 5%
Androgen (Testosterone)
  % inhib: 1%
Dopamine D1
  inhibition at 10 µM: -5%
[3]
  % inhib: 6%
Nicotinic Acetylcholine
  % inhib: 2%
hERG potassium channel
  inhibition at 10 µM: 4%
